Measured values from PMC9321663, “The DevTox Germ Layer Reporter Platform: An Assay Adaptation of the Human Pluripotent Stem Cell Test” (Toxics, 2022).
Where two headings read alike, the source gives them in different places.

What was measured:
RUES2-GLR cells = assay: DevTox GLR-Endo assay: decrease in total cell count, cytotoxicity (AEID 3098, CellCount_dn); conditions: for Emax: Homo sapiens, read-out: Cell Count % Max Inhibition
[1] = as above; conditions: human
[2] = system: SOX17 (endoderm marker) in RUES2-GLR cells; assay: DevTox GLR-Endo assay: decrease in percent SOX17-positive cells (AEID 3094, Sox17_dn); conditions: for Hit Call: Table S2, SOX17-positive cells, cutoff 3*bmad; for DevTox ACC: Table S2, percent SOX17-positive cells; for HIT−CALL: tcpl plot AEID3094, COFF 20.3; for hit call designation (in words): DevTox GLR-Endo prediction against developmental toxicant classification
In short: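 Readouts are loss of SOX17-positive fraction and reduced cell number in endoderm-differentiating RUES2-GLR cells after 48 h of chemical exposure. Controls: undifferentiated and differentiated cells, 0.2% DMSO, and 1 µM SB431542; at least four biological replicates.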

[3] = cited from earlier work; for Development Toxicant Classification: Table S2; for Classification: developmental toxicant classification (Teratogen / Non-Teratogen) of reference and training chemicals, ref DOI per chemical: 10.1093/toxsci/kft239, 10.1093/toxsci/kfaa014, 10.1177/026119290203000204, 10.1038/s41598-020-59542-x; for DT Class.: developmental toxicant classification; for Developmental Toxicant Classification: reference chemicals
[4] = system: SOX2 (ectoderm and pluripotency marker) in RUES2-GLR cells; assay: DevTox GLR-Endo assay: increase in percent SOX2-positive cells (AEID 3095, Sox2_up); conditions: for MAX_MEAN: tcpl plot AEID3095, maximum mean response; for MAX_MED: tcpl plot AEID3095, maximum median response;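 on all read-outs here: cells exposed to test chemicals for 48 h in total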
[5] = system: SOX17 in H9 human ESC line; conditions: SOX17 half-maximal inhibition concentration; read-out: hPST IC50; cited from earlier work
H9 human ESC line = conditions: cited from earlier work
[6] = system: BRA (mesoderm marker) in RUES2-GLR cells; assay: DevTox GLR-Endo assay: increase in percent BRA-positive cells (AEID 3096, Bra_up); format: cell-based, human; conditions: for HIT−CALL: tcpl plot AEID3096, COFF 0.774; for MAX_MEAN: tcpl plot AEID3096, maximum mean response; for MAX_MED: tcpl plot AEID3096, maximum median response
Description: (§1) The total test chemical incubation period was 48 h.
(§2) (Supplementary Materials).

[7] = system: SOX17 (endoderm marker) in RUES2-GLR cells; assay: DevTox GLR-Endo assay: increase in percent SOX17-positive cells (AEID 3093, Sox17_up); format: cell-based, human; conditions: for Emax: Homo sapiens; for HIT−CALL: tcpl plot AEID3093, COFF 20.3
Description: as §1, §2

[8] = RUES2-GLR cells under directed endoderm differentiation
[9] = Homo sapiens, 48 h, read-out: DevTox-GLR Endo AC50 (µM), SOX17 half-maximal activity concentration, 48 h exposure
[10] = Homo sapiens, read-out: DevTox % Max Inhibition
[11] = Homo sapiens, read-out: MAX_MEAN
[12] = Homo sapiens, read-out: MAX_MED
[13] = chemicals common with quickPredict
[14] = cytotoxicity half-maximal concentration
[15] = tcpl plot AEID3093, maximum mean response, read-out: MAX_MEAN
[16] = tcpl plot AEID3093, maximum median response, read-out: MAX_MED
[17] = Homo sapiens, read-out: ga (winning model), tcpl plot AEID3094, gain parameter of winning curve fit (log concentration, µM axis), hit calls only (converted)
[18] = Homo sapiens, read-out: tp (winning model)
[19] = read-out: DevTox-GLR Endo AC50, SOX17 half-maximal activity concentration, 48 h exposure

Row | Compound | Emax (RUES2-GLR cells) [%] | Cell Count ACC (RUES2-GLR cells; human, 48 h) [µM] | AC50 [2, 9] [µM] | Emax [2, 10] [%] | Emax [2, 11] [%] | Emax [2, 12] [%] | Hit Call [2] | DevTox ACC ([2]; 48 h exposure) [µM] | HIT−CALL [2] | MAX_MEAN [4] [Percent Activity] | MAX_MED [4] [Percent Activity] | IC50 [5] [µM] | hPST TC50 (H9 human ESC line; [14]) [µM] | hPST TC50 (H9 human ESC line; hPST cytotoxicity) [µM] | HIT−CALL [6] | MAX_MEAN [6] [Percent Activity] | MAX_MED [6] [Percent Activity] | Emax [7, 15] [%] | Emax [7, 16] [%] | HIT−CALL [7] | also measured
1 | CC(=O)Oc1ccccc1C(=O)O [Aspirin] | 2.85 | >200 | > 200 | 12.4 | 13.1 | 12.4 | Negative | >200 | 0 | 0.503 | 0.512 | > 200 | >200 | > 200 | 1 | 1.04 | 1.03 | -3.36 | -3.07 | 0 | CC50 at 48 h [1, 8]: > 200 µM; Development Toxicant Classification [3]: Negative; Classification [3]: Non-Teratogen; DT Class. ([3]; chemicals common with hPST): Neg; DT Class. [3, 13]: Neg; Developmental Toxicant Classification [3]: Negative
2 | CC1(C)S[C@@H]2[C@H](NC(=O)Cc3ccccc3)C(=O)N2[C@H]1C(=O)O [Penicillin G] | 13.3 | >200 | > 200 | 10.3 | 12.2 | 10.3 | Negative | >200 | 0 | 2.17 | 0.88 | > 400 | >400 | > 400 | 0 | 0.857 | 0.92 | 13.2 | 12.4 | 0 | CC50 at 48 h [1]: > 200 µM
3 | Oc1cc(O)c2c(c1)O[C@H](c1ccc(O)c(O)c1)[C@@H](O)C2 [Cianidanol] | 29.6 | 180.189 | 93 | 39.8 | 39.3 | 39.8 | Positive | 93.5186 | 1 | 0.447 | 0.456 | 97 | 200 | 200 | 0 | 1.32 | 1.37 | 6.18 | 7.45 | 0 | CC50 at 48 h [1, 8]: 194 µM; SOX17 ACC relative to cytotoxic concentration (in words) [2]: below cytotoxic concentrations; hit call designation (in words) [2]: false positive; AC50 [2, 17]: 93.3 µM; Emax [2, 18]: 39.4%; AC50 [2, 19]: 92.9 µM; Development Toxicant Classification [3]: Negative; DT Class. ([3]; chemicals common with hPST): Neg
4 | O=C(O)c1cccnc1 [Niacin, Nicotinic acid] | 10.8 | >200 | > 200 | 6.06 | 5.21 | 6.06 | Negative |  | 0 | 0.611 | 0.561 | > 200 | >200 | > 200 | 0 | 0.818 | 0.865 | 11.3 | 11.4 | 0 | CC50 at 48 h [1]: > 200 µM; Development Toxicant Classification [3]: Negative; Classification [3]: Non-Teratogen; DT Class. ([3]; chemicals common with hPST): Neg
5 | C[C@](N)(Cc1ccc(O)c(O)c1)C(=O)O [Methyldopa] | 10.2 | >200 | 113 | 23.5 | 19.9 | 23.5 | Positive | 217.84 | 1 | 4.03 | 0.534 | 272 | 462 | 462 | 0 | 0.823 | 0.851 | 13.8 | 12.9 | 0 | CC50 at 48 h [1, 8]: > 200 µM; hit call designation (in words) [2]: false positive; AC50 [2, 17]: 112 µM; Emax [2, 18]: 30.9%; AC50 [2, 19]: 113 µM; Development Toxicant Classification [3]: Negative; Classification [3]: Non-Teratogen; DT Class. ([3]; chemicals common with hPST): Neg
6 | Cc1nc2sccn2c(=O)c1CCN1CCC(=C(c2ccc(F)cc2)c2ccc(F)cc2)CC1 [Ritanserin] | 94.7 |  | 9.98 | 102 | 102 | 102 | Positive | 8.389 | 1 | 2.33 | 1.82 | 7.3 | 27 | 27 | 1 | 2.65 | 3.04 | -0.644 | -1.38 | 0 | Cell Count ACC (RUES2-GLR cells; Table S2, 48 h exposure): 6.426 µM; CC50 at 48 h [1, 8]: 9.47 µM; AC50 [2, 17]: 9.98 µM; Emax [2, 18]: 102%; Development Toxicant Classification [3]: Positive; Classification [3]: Teratogen; DT Class. ([3]; chemicals common with hPST): Pos; AC50 ([4]; Homo sapiens, read-out: ga (winning model)): 158 µM; Emax [4, 18]: 4.15%
7 | O=C(c1ccc(F)cc1)C1CCN(CCn2c(=O)[nH]c3ccccc3c2=O)CC1 [Ketanserin] | 68.7 | 33.5346 | 36.6 | 33.3 | 36.9 | 33.3 | Positive | 39.2719 | 1 | 1.16 | 1.15 | > 200 | >200 | > 200 | 0 | 1.82 | 2.05 | 5.18 | 5.62 | 0 | CC50 at 48 h [1]: 57.5 µM; hit call designation (in words) [2]: false positive; AC50 [2, 17]: 36.3 µM; Emax [2, 18]: 31.8%; Development Toxicant Classification [3]: Negative; Classification [3]: Non-Teratogen; DT Class. ([3]; chemicals common with hPST): Neg
8 | O=C1NS(=O)(=O)c2ccccc21 [Saccharin] | 17.9 | >200 | > 200 | 13 | 11 | 13 | Negative | >200 | 0 | 0.945 | 0.563 | > 400 | >400 | > 400 | 0 | 1.1 | 1.04 | 10.2 | 10.9 | 0 | CC50 at 48 h [1]: > 200 µM; Development Toxicant Classification [3]: Negative; Classification [3]: Non-Teratogen; DT Class. ([3]; chemicals common with hPST): Neg; DT Class. [3, 13]: Neg; Developmental Toxicant Classification [3]: Negative
